The values below are quoted from earlier work in US11013708B2, “Prevention of psychotic disorders and/or treatment of psychotic symptoms” (Orygen Youth Health Research Centre, priority 2008, dated 2021).

The structures appear in SMILES notation.

In data set [1] the test system is first-episode psychosis patients. The settings on record: in vivo 1H-MRS.
Data set [2] concerns ultra-high-risk groups. The settings on record: risperidone and cognitive therapy for 6 months vs supportive counselling.

Consider `CC/C=C\C/C=C\C/C=C\C/C=C\C/C=C\CCCC(=O)O` [EPA, all cis (or all z) 5,8, 11, 14, 17-eicosapentanoic acid], for which the “glutathione in temporal lobes” value in data set [1] is reported as “can increase glutathione”. Turning to `Cc1nc2n(c(=O)c1CCN1CCC(c3noc4cc(F)ccc34)CC1)CCCC2` [risperidone], the “efficacy of preventive intervention vs comparator” value in data set [2] is “significantly more effective than supportive counselling at end of intervention, but not at 12-month follow-up”.
